From publication PMC8954792 (Viruses, 2022)
Like-named read-outs stand apart in the source and are kept apart here.

How the values were obtained:
[1] = tested on: cell-free SARS-CoV PsV
[2] = tested on: MERS-CoV PsV
[3] = tested on: cell-free MERS-CoV PsV
[4] = Cytotoxicity (CCK-8) on Huh-7 cells; conditions: human
[5] = tested on: cell-free SARS-CoV-2 PsV; assay: Inactivation of cell-free SARS-CoV-2 PsV; format: cell-based
[6] = tested on: H7N9 PsV; assay: microbe, parasite or virus in culture; format: cell-based, influenza virus; conditions: read-out: IC50 H7N9
[7] = in vitro; conditions: dog
[8] = Cytotoxicity (CCK-8) on hACE2-293T cells; conditions: human
[9] = tested on: MERS-CoV PsV; assay: microbe, parasite or virus in culture; conditions: Middle East respiratory syndrome-related coronavirus, Huh-7
[10] = tested on: cell-free SARS-CoV PsV; assay: microbe, parasite or virus in culture; conditions: Severe acute respiratory syndrome coronavirus
[11] = tested on: SARS-CoV PsV; assay: microbe, parasite or virus in culture; conditions: Severe acute respiratory syndrome coronavirus
[12] = tested on: H5N1 PsV; assay: microbe, parasite or virus in culture; format: cell-based, influenza virus; conditions: read-out: IC50 H5N1
[13] = tested on: pseudotyped SARS-CoV-2 Beta (B.1.351); assay: microbe, parasite or virus in culture; format: cell-based; conditions: Severe acute respiratory syndrome coronavirus 2, Caco-2
[14] = tested on: authentic SARS-CoV-2 WT (nCoV-SH01); assay: microbe, parasite or virus in culture; format: cell-based; conditions: Severe acute respiratory syndrome coronavirus 2, Vero C1008
[15] = tested on: SARS-CoV-2 PsV; assay: microbe, parasite or virus in culture; format: cell-based; conditions: Severe acute respiratory syndrome coronavirus 2
[16] = tested on: pseudotyped SARS-CoV-2 Alpha (B.1.1.7); assay: microbe, parasite or virus in culture; format: cell-based; conditions: Severe acute respiratory syndrome coronavirus 2, Caco-2
[17] = tested on: pseudotyped SARS-CoV-2 Omicron (B.1.1.529); assay: microbe, parasite or virus in culture; format: cell-based; conditions: Severe acute respiratory syndrome coronavirus 2, Caco-2
[18] = tested on: pseudotyped SARS-CoV-2 Gamma (P.1); assay: microbe, parasite or virus in culture; format: cell-based; conditions: Severe acute respiratory syndrome coronavirus 2, Caco-2
[19] = tested on: cell-free MERS-CoV PsV; assay: microbe, parasite or virus in culture; conditions: Middle East respiratory syndrome-related coronavirus, Huh-7
[20] = tested on: SARS-CoV PsV
[21] = tested on: authentic HCoV-OC43; assay: CPE reduction assay, authentic HCoV-OC43; format: cell-based; conditions: HCoV-OC43 infection, RD cells, CCK-8
[22] = tested on: Huh-7 cells; assay: Cytotoxicity (CCK-8) on Huh-7 cells
[23] = tested on: NiV; assay: microbe, parasite or virus in culture; format: cell-based, Nipah virus
[24] = tested on: HPV PsV; format: cell-based, human papilloma virus
[25] = tested on: authentic ZIKV PRVABC59 (2015/Puerto Rico); assay: microbe, parasite or virus in culture; format: cell-based; conditions: read-out: IC50
[26] = tested on: EBOV (Sudan); assay: microbe, parasite or virus in culture; format: cell-based, Ebola virus
[27] = tested on: EBOV (Zaire); assay: microbe, parasite or virus in culture; format: cell-based, Ebola virus
[28] = tested on: Vero E6 cells; format: cell-based
[29] = tested on: hACE2-293T cells; assay: Cytotoxicity (CCK-8) on hACE2-293T cells
[30] = tested on: VSV PsV; assay: microbe, parasite or virus in culture; format: cell-based, vesicular stomatitis virus; conditions: read-out: IC50
[31] = target: HIV-1 6-HB (Human immunodeficiency virus type 1, UniProt P04578); assay: Inhibition of HIV-1 6-HB formation (ELISA); format: biochemical; conditions: HIV-1 6-HB formation measured by ELISA
Chain of HIV-1 6-HB (P04578 536-581, added parts left off): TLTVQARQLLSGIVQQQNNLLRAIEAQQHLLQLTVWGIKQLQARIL
Chain of HIV-1 6-HB (P04578 536-581, added parts left off): as above

[32] = tested on: MDCK cells
[33] = tested on: authentic IAV H1N1 (A/California/04/2009); format: cell-based, influenza virus
[34] = tested on: HIV-1 Bal.01 PsV; assay: Sucrose density gradient assay to evaluate viral inactivation; conditions: HIV-1 Bal.01 PsV treated with 50 μM at 37 °C for 2 h
[35] = tested on: LASV; assay: organism not typed; format: cell-based, Lassa fever virus
[36] = tested on: HIV-1 Bal.01 PsV; assay: HIV-1 PsV inhibition in presence of recombinant unilamellar liposomes; format: cell-based; conditions: compared with the PBS group
[37] = tested on: authentic EV71; assay: CPE reduction assay, authentic EV71; format: cell-based, human enterovirus 71 virus; conditions: RD cells
[38] = tested on: authentic IAV H3N2 (A/Victoria/361/2011); format: cell-based, influenza virus
[39] = tested on: SARS-CoV-2 PsV; format: cell-based
[40] = Severe acute respiratory syndrome coronavirus 2

In the case of `C#CCOCCOc1ccc(CCN2C(=O)/C(=C/c3ccc(-c4ccc(Cl)c(C(=O)O)c4)o3)SC2=S)cc1` [FD008], the “SI CC50/EC50” value [1] is reported as 123.37, the “SI CC50/IC50” value [2] is reported as 125.48 and the “SI CC50/EC50” value [3] is reported as 56.38. It also gave a CC50 at 48 h [4] of 38900 ± 1220 nM, an EC50 [5, 40] of 410 nM and an IC50 ([6]; Influenza A virus, H7N9, MDCK) of 2510 ± 330 nM. It also gave a CC50 [7] greater than 50000 nM, a CC50 at 48 h [8] of 23400 ± 780 nM and an IC50 [9] of 310 ± 20 nM. The EC50 [10] was 190 ± 20 nM, the IC50 [11] was 50 ± 10 nM and the IC50 ([12]; Influenza A virus, H5N1, MDCK) was 510 ± 140 nM. The IC50 [13] was 420 nM, the IC50 [14] was 50 nM and the IC50 [15] was 460 nM. For the same compound, the IC50 [16] was 340 nM, the IC50 [17] was 740 nM and the IC50 [18] was 690 nM. For the same compound, the EC50 [19] was 690 ± 130 nM and the “SI CC50/IC50” value [20] was 468.80.

With `O=C(O)c1cc(-c2ccc(C=C3SC(=S)N(CCc4ccccc4)C3=O)o2)ccc1Cl` [FD001, furanyl methylidene rhodanine] the EC50 [1] was 1580 ± 210 nM, the “SI CC50/EC50” value [1] was 18.25 and the IC50 [2] was 290 ± 30 nM. For the same compound, the “SI CC50/IC50” value [2] was 147.07, the IC50 [21] was 480 nM and the EC50 [3] was 1120 ± 160 nM. For the same compound, the “SI CC50/EC50” value [3] was 38.08, the CC50 [22] was 42600 ± 1310 nM and the EC50 [5] was 670 nM. For the same compound, the IC50 [6] was 850 ± 210 nM, the IC50 [23] was 410 ± 70 nM and the “inhibition of infection of nonenveloped HPV PsV” value [24] was “could not inhibit”. The IC50 [25] was 4360 nM, the IC50 [26] was 390 ± 40 nM and the IC50 [27] was 1040 ± 110 nM. The “fluorescence intensity of treated cells (binding to cells)” value [28] was “positively correlated with compound concentration”, the CC50 [29] was 28800 ± 1240 nM and the IC50 [30] was 20 nM. The IC50 [31] was 17400 nM, the IC50 [12] was 260 ± 30 nM and the CC50 [32] was greater than 50000 nM. The “inhibition of authentic IAV H1N1 infection” value [33] was “inhibited”, the “integrity of the viral membrane (band distribution of p24)” value [34] was “did not disrupt the integrity of the viral membrane” and the IC50 [35] was 440 ± 100 nM. For the same compound, the “antiviral activity, liposomes added to HIV-1 PsV pretreated with compound” value [36] was “good antiviral activity”, the “inhibitory activity against HIV-1 PsV, compound pretreated with liposomes” value [36] was “no different from that of the PBS group” and the “inhibition of infection of authentic EV71” value [37] was “could not inhibit”. The “inhibition of authentic IAV H3N2 infection” value [38] was “inhibited”, the “inhibition of SARS-CoV-2 PsV infection after unbound compound washed from cells” value [39] was “not effective in inhibiting viral infection after washing” and the IC50 [20] was 180 ± 20 nM. For the same compound, the “SI CC50/IC50” value [20] was 160.22.

For `CCOc1ccc(CCN2C(=O)/C(=C/c3ccc(-c4ccc(Cl)c(C(=O)O)c4)o3)SC2=S)cc1` [FD009], the “SI CC50/EC50” value [1] was 144.75, the “SI CC50/IC50” value [2] was 98.36 and the “SI CC50/EC50” value [3] was 94.97. It also gave a CC50 at 48 h [4] of 27500 ± 1430 nM, an EC50 [5, 40] of 160 nM and an IC50 ([6]; Influenza A virus, H7N9, MDCK) of 1410 ± 270 nM. For the same compound, the CC50 [7] was greater than 50000 nM, the CC50 at 48 h [8] was 17400 ± 640 nM and the IC50 [9] was 280 ± 20 nM. It also gave an EC50 [10] of 120 ± 10 nM, an IC50 [11] of 30 ± 10 nM and an IC50 ([12]; Influenza A virus, H5N1, MDCK) of 150 ± 40 nM. It also gave an IC50 [13] of 240 nM, an IC50 [14] of 30 nM and an IC50 [15] of 50 nM. The IC50 [16] was 550 nM, the IC50 [17] was 580 nM and the IC50 [18] was 470 nM. For the same compound, the “inhibition of SARS-CoV-2 PsV infection after unbound compound washed from cells” value [39] was “not effective in inhibiting viral infection after washing” and the EC50 [19] was 290 ± 20 nM.

With `O=C(O)c1cc(-c2ccc(/C=C3\SC(=S)N(CCc4ccc(OCc5ccc(F)cc5)cc4)C3=O)o2)ccc1Cl` [FD010] the “SI CC50/EC50” value [1] was 107.47, the “SI CC50/IC50” value [2] was 372.25 and the CC50 at 48 h [4] was 44700 ± 1260 nM. For the same compound, the EC50 [5, 40] was 90 nM, the IC50 ([6]; Influenza A virus, H7N9, MDCK) was 5880 ± 610 nM and the CC50 [7] was greater than 50000 nM. For the same compound, the CC50 at 48 h [8] was 20400 ± 1000 nM, the IC50 [9] was 120 ± 10 nM and the EC50 [10] was 190 ± 30 nM. It also gave an IC50 [11] of 290 ± 30 nM, an IC50 ([12]; Influenza A virus, H5N1, MDCK) of 970 ± 210 nM and an IC50 [13] of 1550 nM. For the same compound, the IC50 [14] was 40 nM, the IC50 [15] was 360 nM and the IC50 [16] was 1040 nM. The IC50 [17] was 2880 nM, the IC50 [18] was 870 nM and the EC50 [19] was 40 ± 10 nM. The “SI CC50/IC50” value [20] was 70.41.
